Assay results from paper PMC6480711, “The Molecular and Structural Basis of O-methylation Reaction in Coumarin Biosynthesis in Peucedanum praeruptorum Dunn” (International Journal of Molecular Sciences, 2019).

Experiments:
[1] = target: T1, COMT-S (Kitagawia praeruptora, UniProt A0A4P8DY91); assay: isothermal titration calorimetry; type: binding; conditions: 25 mM Tris-HCl pH 8.0, 150 mM NaCl, 25 °C; cofactor analogue (product of SAM)
T1 construct: full-length CDS in pET28a, 6xHis tag, E. coli BL21 (DE3), Superdex 200
T1 sequence (A0A4P8DY91 1-364): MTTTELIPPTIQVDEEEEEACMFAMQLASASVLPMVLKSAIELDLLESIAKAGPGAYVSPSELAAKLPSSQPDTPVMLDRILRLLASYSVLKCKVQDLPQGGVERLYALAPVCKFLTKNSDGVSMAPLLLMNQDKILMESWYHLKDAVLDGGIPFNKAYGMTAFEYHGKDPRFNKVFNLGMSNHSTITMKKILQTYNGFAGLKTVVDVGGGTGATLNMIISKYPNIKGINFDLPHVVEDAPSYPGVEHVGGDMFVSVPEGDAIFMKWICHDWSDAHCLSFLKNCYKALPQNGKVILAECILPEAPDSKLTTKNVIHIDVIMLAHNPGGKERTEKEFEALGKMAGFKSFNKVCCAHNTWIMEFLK

[2] = target: T2, PpBMT (Kitagawia praeruptora, UniProt A0A166U5H3); assay: HPLC product analysis; type: biochemical; conditions: co-substrate SAM; product bergapten
T2 construct: gene BMT; recombinant, construct as in the authors' previous report
T2 sequence (A0A166U5H3 whole entry): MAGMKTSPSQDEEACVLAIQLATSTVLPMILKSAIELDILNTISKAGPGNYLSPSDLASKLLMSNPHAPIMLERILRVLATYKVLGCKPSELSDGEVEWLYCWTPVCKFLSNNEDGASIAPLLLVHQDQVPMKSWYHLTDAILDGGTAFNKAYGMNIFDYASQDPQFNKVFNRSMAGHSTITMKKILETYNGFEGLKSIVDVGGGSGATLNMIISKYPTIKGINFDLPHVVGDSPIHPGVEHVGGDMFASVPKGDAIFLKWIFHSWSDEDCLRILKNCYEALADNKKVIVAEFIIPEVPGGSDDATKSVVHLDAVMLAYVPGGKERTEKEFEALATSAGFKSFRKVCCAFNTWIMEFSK

Compound	equilibrium dissociation constant [1]	HPLC product analysis [2]
Nc1ncnc2c1ncn2[C@@H]1O[C@H](CSCC[C@H](N)C(=O)O)[C@@H](O)[C@H]1O [SAH]	The equilibrium dissociation constants of PpBMT/COMT–SAH interactions were determined by an MicroCal Auto-ITC200 calorimeter	–
O=c1ccc2c(O)c3ccoc3cc2o1 [bergaptol]	–	COMT-S could accept esculetin, bergaptol, and xanthotoxl as substrates, while BMT could only catalyze bergaptol
